Experimental findings from patent US12187773B2, “Modified GIP peptide analogues” (Antag Therapeutics ApS, priority 2018, dated 2025) are described below.

*1 amine or outer side, *2 acyl side, *3 side chain or, on linkers, in order; H or OH if unused. Where a SMILES comes first, the peptide text is derived from it. Side-chain parts run from the residue outwards. [ ]: non-standard residue; d: D form. The star is where a group is joined. C18 diacid = O=C(O)CCCCCCCCCCCCCCCCC(=O)*; C16 diacid = O=C(O)CCCCCCCCCCCCCCC(=O)*; γGlu = O=C(O)[C@H](CCC(=O)[*:2])N[*:1]; pGlu = O=C1CC[C@@H](C(=O)O)N1; AEEA = NCCOCCOCC(=O)O

Holding throughout (type): cell-based
In experiment [1] the target is T1, human GIP receptor (Homo sapiens, UniProt P48546).
T1 sequence (P48546 22-466): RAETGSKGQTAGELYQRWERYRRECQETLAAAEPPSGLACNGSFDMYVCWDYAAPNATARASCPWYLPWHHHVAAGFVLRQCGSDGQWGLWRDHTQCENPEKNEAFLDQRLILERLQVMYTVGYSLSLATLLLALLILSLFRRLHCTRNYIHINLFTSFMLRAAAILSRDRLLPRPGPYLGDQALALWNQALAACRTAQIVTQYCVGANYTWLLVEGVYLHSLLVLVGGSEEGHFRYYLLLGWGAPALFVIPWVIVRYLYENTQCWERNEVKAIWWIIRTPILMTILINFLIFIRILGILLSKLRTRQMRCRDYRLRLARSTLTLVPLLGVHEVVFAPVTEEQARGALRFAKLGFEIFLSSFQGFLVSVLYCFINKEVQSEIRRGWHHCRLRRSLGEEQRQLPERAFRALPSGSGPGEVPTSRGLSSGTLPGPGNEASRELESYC
Put plainly: cAMP antagonism (CisBio cAMP Dynamic 2 HTRF assay). The settings on record: Table 1C, CisBio, HEK-293 cells; for IC50: cAMP antagonism, nM (IC50), agonist GIP1-42 at EC50. More on the design: pCMV-Script vector. In outline:
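Four-parameter fits of cAMP dose-response gave pIC50. cAMP fall was quantified by HTRF competition, ratio 665/620 nm after 60 min at room temperature, against a cAMP standard curve.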

Experiment [2] addresses T1, human GIP receptor. Put plainly: cAMP accumulation, antagonism (DiscoveRx HitHunter cAMP XS assay). The settings on record: Table 1B, DiscoveRx; for cAMP antagonism, % inhib: COS-7 cells, % inhibition of Emax; for IC50: cAMP antagonism, nM (IC50), transiently transfected COS-7 cells. More on the design: host or cells: COS-7 (transient, calcium phosphate; pCMV-Script vector). In outline:
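Transiently transfected COS-7 cells expressing human GIP receptor, pretreated with 1 mM IBMX in HBS 30 min at 37 °C. Agonism: ligand 30 min at 37 °C; antagonism: 10 min antagonist preincubation, then GIP at 50-80% maximal response for 20 min. cAMP measured by HitHunter cAMP XS.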

Experiment [3] has as its target T1, human GIP receptor. The experiment is described as follows: cAMP accumulation, agonism (DiscoveRx HitHunter cAMP XS assay). Set-up: host or cells: COS-7 (transient, calcium phosphate; pCMV-Script vector). The settings on record: Table 1B; DiscoveRx; COS-7 cells. In outline: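 cAMP accumulation measured by HitHunter cAMP XS in COS-7 cells transiently expressing human GIP receptor, after 30 min in HBS with 1 mM IBMX at 37 °C. Antagonists preincubated 10 min before GIP giving 50-80% of maximum, then 20 min more; agonist mode used 30 min ligand exposure.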

Experiment [4] deals with T1, human GIP receptor. The experiment is described as follows: cAMP agonism (CisBio cAMP Dynamic 2 HTRF assay). The settings on record: HEK293, read-out: cAMP agonism, % Efficacy, Table 1C, HEK-293 cells. As for the experimental part:
To test for agonistic properties at the GIP receptor, compounds were diluted and added to cells as described above and incubated for 30 min at 37° C. The resulting increase in intracellular cAMP was determined using the CisBio cAMP Dynamic 2 HTRF Assay Kit as described above.
In general terms: Time-resolved FRET reads energy transfer from a long-lived donor to a nearby acceptor.

For orientation: IC50 means the concentration needed to halve the response being measured. For the compound `CC[C@H](C)[C@H](NC(=O)[C@H](CO)NC(=O)[C@H](Cc1ccc(O)cc1)NC(=O)[C@H](CC(=O)O)NC(=O)[C@H](CO)NC(=O)[C@@H](NC(=O)[C@H](Cc1ccccc1)NC(=O)[C@@H](NC(=O)CNC(=O)[C@@H](N)CCC(=O)O)[C@@H](C)O)[C@@H](C)CC)C(=O)N[C@@H](C)C(=O)N[C@@H](CCSC)C(=O)N[C@@H](CC(=O)O)C(=O)N[C@@H](CCCNC(=N)N)C(=O)N[C@H](C(=O)N[C@@H](CCCCNC(=O)COCCOCCNC(=O)COCCOCCNC(=O)CC[C@H](NC(=O)CCCCCCCCCCCCCCCCC(=O)O)C(=O)O)C(=O)N[C@@H](CCC(N)=O)C(=O)N[C@@H](CCC(N)=O)C(=O)N[C@@H](CC(=O)O)C(=O)N[C@@H](Cc1ccccc1)C(=O)N[C@H](C(=O)N[C@@H](CC(N)=O)C(=O)N[C@@H](Cc1c[nH]c2ccccc12)C(=O)N[C@@H](CC(C)C)C(=O)N[C@@H](CC(C)C)C(=O)N[C@@H](C)C(=O)N[C@@H](CCC(N)=O)C(=O)N[C@@H](CCCNC(=N)N)C(N)=O)C(C)C)[C@@H](C)CC` [AT377] (H-EGTFISDYSIAMDRIK([AEEA-AEEA-γGlu-C18 diacid])QQDFVNWLLAQR-NH2; N-terminus assumed), the “cAMP antagonism, % inhib” value at human GIP receptor [1] is reported as 90%. Further, at human GIP receptor [2], the “cAMP antagonism, % inhib” value came out at 100% and the IC50 came to 19 nM. Also, the “cAMP agonism, Emax” value at human GIP receptor [3] was “No Agonism”. The Emax on human GIP receptor [4] was 0%.

In the case of `CC[C@H](C)[C@H](NC(=O)[C@H](CO)NC(=O)[C@H](Cc1ccc(O)cc1)NC(=O)[C@H](CC(=O)O)NC(=O)[C@H](CO)NC(=O)[C@@H](NC(=O)[C@H](Cc1ccccc1)NC(=O)[C@@H](NC(=O)CNC(=O)[C@@H](N)CCC(=O)O)[C@@H](C)O)[C@@H](C)CC)C(=O)N[C@@H](C)C(=O)N[C@@H](CCSC)C(=O)N[C@@H](CC(=O)O)C(=O)N[C@@H](CCCNC(=N)N)C(=O)N[C@H](C(=O)N[C@@H](CCCCNC(=O)COCCOCCNC(=O)COCCOCCNC(=O)COCCOCCNC(=O)CC[C@H](NC(=O)CCCCCCCCCCCCCCCCC(=O)O)C(=O)O)C(=O)N[C@@H](CCC(N)=O)C(=O)N[C@@H](CCC(N)=O)C(=O)N[C@@H](CC(=O)O)C(=O)N[C@@H](Cc1ccccc1)C(=O)N[C@H](C(=O)N[C@@H](CC(N)=O)C(=O)N[C@@H](Cc1c[nH]c2ccccc12)C(=O)N[C@@H](CC(C)C)C(=O)N[C@@H](CC(C)C)C(=O)N[C@@H](C)C(=O)N[C@@H](CCC(N)=O)C(=O)N[C@@H](CCCNC(=N)N)C(N)=O)C(C)C)[C@@H](C)CC` [AT378] (H-EGTFISDYSIAMDRIK([AEEA-AEEA-AEEA-γGlu-C18 diacid])QQDFVNWLLAQR-NH2; N-terminus assumed), the “cAMP antagonism, % inhib” value stood at 90% at human GIP receptor [1] and 92% at human GIP receptor [2]. For the same compound, the IC50 on human GIP receptor [2] was 16 nM. Further, at human GIP receptor [3], the “cAMP agonism, Emax” value was “No Agonism”. Moreover, on human GIP receptor [4], the Emax came to 0%.

As to `CC[C@H](C)[C@H](NC(=O)[C@H](CO)NC(=O)[C@H](Cc1ccc(O)cc1)NC(=O)[C@H](CC(=O)O)NC(=O)[C@H](CO)NC(=O)[C@@H](NC(=O)[C@H](Cc1ccccc1)NC(=O)[C@@H](NC(=O)CNC(=O)[C@@H]1CCC(=O)N1)[C@@H](C)O)[C@@H](C)CC)C(=O)N[C@@H](C)C(=O)N[C@@H](CCSC)C(=O)N[C@@H](CC(=O)O)C(=O)N[C@@H](CCCNC(=N)N)C(=O)N[C@H](C(=O)N[C@@H](CCCCNC(=O)CCCCCCCCCCCCCCC(=O)O)C(=O)N[C@@H](CCC(N)=O)C(=O)N[C@@H](CCC(N)=O)C(=O)N[C@@H](CC(=O)O)C(=O)N[C@@H](Cc1ccccc1)C(=O)N[C@H](C(=O)N[C@@H](CC(N)=O)C(=O)N[C@@H](Cc1c[nH]c2ccccc12)C(=O)N[C@@H](CC(C)C)C(=O)N[C@@H](CC(C)C)C(=O)N[C@@H](C)C(=O)N[C@@H](CCC(N)=O)C(=O)N[C@@H](CCCNC(=N)N)C(N)=O)C(C)C)[C@@H](C)CC` [AT390] ([pGlu]GTFISDYSIAMDRIK(C16 diacid)QQDFVNWLLAQR-NH2), at human GIP receptor [1], the “cAMP antagonism, % inhib” value was 81% and the IC50 turned out to be 15.9 nM. In addition, at human GIP receptor [2], the “cAMP antagonism, % inhib” value is recorded as 100% and the IC50 was 1 nM. In addition, the “cAMP agonism, Emax” value at human GIP receptor [3] was “No Agonism”. Further, the Emax on human GIP receptor [4] was 4%.

For `CC[C@H](C)[C@H](NC(=O)[C@H](CO)NC(=O)[C@H](Cc1ccc(O)cc1)NC(=O)[C@H](CC(=O)O)NC(=O)[C@H](CO)NC(=O)[C@@H](NC(=O)[C@H](Cc1ccccc1)NC(=O)[C@@H](NC(=O)CNC(=O)[C@@H]1CCC(=O)N1)[C@@H](C)O)[C@@H](C)CC)C(=O)N[C@@H](C)C(=O)N[C@@H](CCSC)C(=O)N[C@@H](CC(=O)O)C(=O)N[C@@H](CCCNC(=N)N)C(=O)N[C@H](C(=O)N[C@@H](CCCCNC(=O)CCCCCCCCCCCCCCCCC(=O)O)C(=O)N[C@@H](CCC(N)=O)C(=O)N[C@@H](CCC(N)=O)C(=O)N[C@@H](CC(=O)O)C(=O)N[C@@H](Cc1ccccc1)C(=O)N[C@H](C(=O)N[C@@H](CC(N)=O)C(=O)N[C@@H](Cc1c[nH]c2ccccc12)C(=O)N[C@@H](CC(C)C)C(=O)N[C@@H](CC(C)C)C(=O)N[C@@H](C)C(=O)N[C@@H](CCC(N)=O)C(=O)N[C@@H](CCCNC(=N)N)C(N)=O)C(C)C)[C@@H](C)CC` [AT391] ([pGlu]GTFISDYSIAMDRIK(C18 diacid)QQDFVNWLLAQR-NH2), on human GIP receptor [1], the “cAMP antagonism, % inhib” value worked out at 95%. Also, on human GIP receptor [2], the “cAMP antagonism, % inhib” value came to 100% and the IC50 worked out at 10 nM. For the same compound, the “cAMP agonism, Emax” value at human GIP receptor [3] is recorded as “No Agonism”. For the same compound, the Emax at human GIP receptor [4] was 0%.

Turning to `CC[C@H](C)[C@H](NC(=O)[C@H](CO)NC(=O)[C@H](Cc1ccc(O)cc1)NC(=O)[C@H](CC(=O)O)NC(=O)[C@H](CO)NC(=O)[C@@H](NC(=O)[C@H](Cc1ccccc1)NC(=O)[C@@H](NC(=O)CNC(=O)CN)[C@@H](C)O)[C@@H](C)CC)C(=O)N[C@@H](C)C(=O)N[C@@H](CCSC)C(=O)N[C@@H](CC(=O)O)C(=O)N[C@@H](CCCNC(=N)N)C(=O)N[C@H](C(=O)N[C@@H](CCCCNC(=O)CCCCCCCCCCCCCCC(=O)O)C(=O)N[C@@H](CCC(N)=O)C(=O)N[C@@H](CCC(N)=O)C(=O)N[C@@H](CC(=O)O)C(=O)N[C@@H](Cc1ccccc1)C(=O)N[C@H](C(=O)N[C@@H](CC(N)=O)C(=O)N[C@@H](Cc1c[nH]c2ccccc12)C(=O)N[C@@H](CC(C)C)C(=O)N[C@@H](CC(C)C)C(=O)N[C@@H](C)C(=O)N[C@@H](CCC(N)=O)C(=O)N[C@@H](CCCNC(=N)N)C(N)=O)C(C)C)[C@@H](C)CC` [AT496] (H-GGTFISDYSIAMDRIK(C16 diacid)QQDFVNWLLAQR-NH2; N-terminus assumed), at human GIP receptor [1], the “cAMP antagonism, % inhib” value turned out to be 100% and the IC50 turned out to be 39.8 nM. At human GIP receptor [2], the “cAMP antagonism, % inhib” value stood at 100% and the IC50 turned out to be 12 nM. For the same compound, at human GIP receptor [3], the “cAMP agonism, Emax” value was “No Agonism”. Besides, the Emax on human GIP receptor [4] turned out to be 0%.
